Experimental data published in ChEMBL document CHEMBL1201862, “PubChem BioAssay data set” (2004).
Where a name gives a salt, the structure may show the parent alone. The source made the active and inactive calls. Cut-off read from the data, not from the text of the source, for most assays here: actives have a measured EC50 and inactives only a lower limit.

Legend:
[1] = Luminescence Cell-Based Dose Confirmation HTS to Identify Activators of 5'UTR Stem-Loop Driven Alpha-Synuclein mRNA Translation in H4 Neuroglioblastoma Cells. [Related pubchem assays: 1829 (Project Summary), 1814 (Primary HTS)]; format: functional
[2] = Luminescence Cell-Based Dose Response HTS to Identify Activators of Luciferase Translation or Activity in H4 […] Cells. [Related pubchem assays: 1829 (Project Summary), 1814 (Primary HTS)]; format: functional
[3] = system: H4; experiment: Luminescence Cell-Based Dose Response HTS to Identify Activators of 5'UTR Stem-Loop Driven Prion Protein mRNA Translation in H4 Neuroglioblastoma Cells. [Related pubchem assays: 1829 (Project Summary), 1814 (Primary HTS)]; format: functional; conditions: Homo sapiens
[4] = target: T1, Corticotropin-releasing factor receptor 2/Corticotropin-releasing factor-binding protein (Homo sapiens, UniProt P24387+Q13324); experiment: activators of CRF receptor 2 with binding protein – uHTS hits, confirmation (AID 602473); format: functional; conditions: read-out: EC50_Mean
T1 sequence (Q13324 whole entry): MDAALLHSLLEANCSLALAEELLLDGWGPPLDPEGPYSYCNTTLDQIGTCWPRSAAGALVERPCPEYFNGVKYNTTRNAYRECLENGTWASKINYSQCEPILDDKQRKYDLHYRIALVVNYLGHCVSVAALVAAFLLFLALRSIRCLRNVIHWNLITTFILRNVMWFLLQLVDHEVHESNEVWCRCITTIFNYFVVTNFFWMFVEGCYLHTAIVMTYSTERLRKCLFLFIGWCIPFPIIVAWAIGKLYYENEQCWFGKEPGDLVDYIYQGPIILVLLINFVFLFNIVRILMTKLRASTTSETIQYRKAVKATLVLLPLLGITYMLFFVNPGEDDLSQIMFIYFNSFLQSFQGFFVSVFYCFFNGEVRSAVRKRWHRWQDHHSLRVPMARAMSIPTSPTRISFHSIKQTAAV
T1 sequence (P24387 whole entry): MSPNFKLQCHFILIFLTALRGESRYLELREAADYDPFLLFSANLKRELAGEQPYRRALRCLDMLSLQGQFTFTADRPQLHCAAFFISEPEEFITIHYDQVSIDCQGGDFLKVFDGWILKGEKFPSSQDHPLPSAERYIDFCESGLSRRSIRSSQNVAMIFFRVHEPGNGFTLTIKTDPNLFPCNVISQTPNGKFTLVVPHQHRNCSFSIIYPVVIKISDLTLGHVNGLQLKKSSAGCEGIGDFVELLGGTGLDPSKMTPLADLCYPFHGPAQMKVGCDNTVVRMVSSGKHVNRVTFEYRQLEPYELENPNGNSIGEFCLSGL

[5] = target: T1, Corticotropin-releasing factor receptor 2/Corticotropin-releasing factor-binding protein; experiment: Dose Response confirmation of uHTS hits for small molecule antagonists of the CRF-binding protein and CRF-R2 receptor complex.; format: functional; conditions: read-out: IC50_Mean
[6] = NIH3T3 cell viability loss – ATP luminescence, mouse fibroblasts, counter-screen, dose response (AID 2010); format: functional, cell-based;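 note: cells exposed to compound for about 90 hours before reading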
[7] = Trypanosoma cruzi growth suppression in host cells – NIH3T3 host cells, beta-gal luminescence, confirmation (AID 2044); format: functional, cell-based;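 note: intracellular parasites grown in NIH/3T3 mouse fibroblasts as host cells; luminescent beta-galactosidase reporter signal from transgenic T. cruzi replicating inside host cells; inhibitors lower the luminescence signal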

Row | Structure (SMILES) | EC50 [1] | EC50 [2] | EC50 [3] | EC50 [4] | IC50 [5] | EC50 [6] | EC50 [7]
1 | O=C(CSc1ncnc2ccccc12)c1ccc2c(c1)OCCO2 | 12.9 µM (active) | 90.6 µM (active) | > 120 µM (not active) | – | – | – | –
2 | Cc1nc(-c2ccccc2)nc2[nH]c(=O)n(-c3ccccc3)c(=O)c12 | 16.6 µM (active) | 8.63 µM (active) | > 120 µM (not active) | – | – | – | –
3 | N#Cc1c(N)nc2c(c1N)CC(COc1ccccc1)O2 (stereo not drawn) | 47.2 µM (active) | 20.2 µM (active) | 10.7 µM (active) | – | – | – | –
4 | CCOc1c(C)cc(-c2ncccc2O)cc1C | – | – | – | > 53 µM (inactive) | > 47.1 µM (inactive) | – | –
5 | Fc1cccc(CSc2nc3cc[nH]cc-3n2)c1 | 39.2 µM (active) | 38.2 µM (active) | 19.2 µM (active) | – | – | – | –
6 | O=C(c1ccc(N2CCNCC2)cc1)c1cccnc1 | – | – | – | > 53 µM (inactive) | > 47.1 µM (inactive) | – | –
7 | O=C(Nc1cc(C(F)(F)F)ccc1-n1cncn1)c1ccc(Cl)cc1 | – | – | – | > 53 µM (inactive) | > 47.1 µM (inactive) | – | –
8 | Cn1cccc1C(=O)OCC(=O)Nc1ccc2c(c1)CCC2 | 6.37 µM (active) | 14.5 µM (active) | 47.9 µM (inconclusive) | – | – | – | –
9 | COc1ccc(Oc2nccc(-c3ccccc3)c2C#N)cc1 | – | 9.77 µM (active) | 11.8 µM (active) | > 53 µM (inactive) | 30.7 µM (active) | – | –
10 | CCN(CC)C(=O)CCc1nnc(Cc2cccc(C(F)(F)F)c2)o1 | 12.5 µM (active) | 14.5 µM (active) | > 120 µM (not active) | – | – | – | –
11 | Cc1ccc(C(=O)O/N=C(\N)Cc2ccc([N+](=O)[O-])cc2)c(Cl)c1 | > 120 µM (not active) | > 120 µM (not active) | 28.6 µM (active) | – | – | – | –
12 | Cc1cc(N2CCN(C)CC2)nc2ccc(NC(=O)CCC(=O)NCCCOC(C)C)cc12 | – | – | – | > 53 µM (inactive) | > 47.1 µM (inactive) | – | –
13 | c1ccc2c(COn3nnc4ccccc43)cccc2c1 | 28.7 µM (active) | > 120 µM (not active) | > 120 µM (not active) | – | – | – | –
14 | c1ccn2c(SCc3cn4ccsc4n3)nnc2c1 | 0.408 µM (active) | 2.4 µM (active) | 108 µM (active) | – | – | – | –
15 | CCN1CCN(C(=O)c2ccc3c(=O)n(CCc4ccccc4)c(=O)[nH]c3c2)CC1 | 107 µM (active) | 63.3 µM (active) | 10.2 µM (active) | – | – | – | –
16 | CCCn1c(=O)c2ccccc2n2c(SCc3nc4ccccc4s3)nnc12 | 0.359 µM (active) | 29.2 µM (active) | 5.47 µM (active) | – | – | – | –
17 | CC1=CC(C)(C)N=C(Nc2ccc(C)cc2)S1 | 15.2 µM (active) | 12.6 µM (active) | 24.4 µM (active) | – | – | – | –
18 | Cc1cc(NC(=O)Cc2ccccc2)ccc1NC(=O)c1cccs1 | – | – | – | > 53 µM (inactive) | > 47.1 µM (inactive) | – | –
19 | COc1ccc(NC(=O)CN2CCCC2c2cccs2)cc1S(=O)(=O)N1CCCCC1 (stereo not drawn) | – | – | – | > 53 µM (inactive) | > 47.1 µM (inactive) | – | –
20 | COc1ccccc1NS(=O)(=O)c1ccc(N/N=C/c2c(C)nn(-c3ccccc3)c2N2CCCC2)c([N+](=O)[O-])c1 | – | – | – | > 53 µM (inactive) | > 47.1 µM (inactive) | > 60 µM (not active) | 501 nM (active)
21 | O=C(O)C1=CCCNC1 [GUVACINE HYDROCHLORIDE] | – | – | – | > 53 µM (inactive) | > 47.1 µM (inactive) | – | –
